Legend:
[1] = system: MV4:11 human cancer cell lines; experiment: Cellular viability / anti-proliferative assay, CellTiter-Glo, 5 day protocol; type: cell-based; details: Homo sapiens, MV4-11, 120 h, MV4:11 cells; 5 day incubation; CellTiter-Glo; mean of at least two replicates; read-out: GI50 on cellular proliferation of MV4:11 human cancer cell lines
Procedure: Cellular Viability of Human Tumor Cell Lines
Anti-proliferative activity using MLL-harboring cell lines. MV-4-11 and K562 cells are grown in IMDM media supplemented with 10% FBS and 1% penicillin/streptomycin, Molm-13 cells are cultured in RPMI-1640 media supplemented with 10% FBS and 1% penicillin/streptomycin. Viability assays are performed by dispensing 200 cells at 7200 cells/mL into each well of an opaque 384-well plate and adding compounds at the indicated concentrations in a final volume, of 32 μL. and a final concentration of DMSO of 0.3% for all samples. A certain range of compound concentrations is made through a series of 2-fold dilutions starting 30 μM at the highest, total 22 dilutions. After a set incubation period, 5 day protocol, the viability of cells in each well is assessed using the CellTiter-Glo assay (Promega), read on a 96 Microplane Luminometer (Cytation 3, BioTek). Serial dilutions of each cell type are performed in all assays to generate standard curves and the final densities of cells are determined within the dynamic range of the instrument. GI50 values are calculated based on XLfit software (IDBS, Guildford, UK) with Sigmoidal Dose-Response Model. Each compound is tested in minimum of two replicates. Data are expressed as mean.

WDR5 = WDR5 (Homo sapiens, UniProt P61964); experiment: TR-FRET competition binding assay, displacement of 10mer-Thr-FAM MLL peptide probe from His-tagged WDR5; details: WDR5-His tag (residues 24-334) 2 nM; 10mer-Thr-FAM 150 nM; 60 min, room temperature; read-out: Ki for Inhibition of WDR5 by TR-FRET assay
Procedure: Time Resolved-Fluorescence Energy Transfer Competition Assay […] Excess 10mer-Thr-FAM probe was utilized with His-tagged WDR5 in conjunction with a commercial anti-His antibody containing a Terbium label. The LanthaScreenTM Elite Tb-anti-HIS Antibody from ThermoFisher Scientific was used for this purpose. […] The 10mer-Thr-FAM probe when bound to WDR5 will undergo a FRET interaction with the Tb-anti-HIS and emit at 520 nm. […] WDR[…] 10[…] used at 150 nM. […] A source plate is prepared using an Echo Liquid Handler, which distributes the compounds to the assay plate (white, flat-bottom; OptiPlate) in a 10-point, 5-fold dilution schemes with a top concentration of 5 μM, in a final volume of 20 μL. […] The final DMSO concentration in each well of the assay plate is 1% or lower. The plate is covered, shielded from light, and incubated for 60 minutes at room temperature with rocking. 10mer-Thr-FAM and Anti-His terbium antibody fluorescence is then measured on a Biotek Cytation 3 at excitation wavelength of 340 nm, and emission wavelengths of 495 nm and 520 nm. […] TR-FRET signal is plotted and IC50 and Ki values are calculated according to the formula of Wang Z. FEBS Lett (1996) 3, 245. Ki=[I]50/([L]50/Kd+[P]0/Kd+1) where [I]50 is the concentration of the free inhibitor at 50% inhibition, [L]50 is the concentration of the free labeled ligand at 50% inhibition, [P]0 is the concentration of the free protein at 0% inhibition, Kd represents the dissociation constant of the FITC-MLL or 10mer-Thr-FAM probe for WDR5. Total fluorescence is also measured, to rule out compounds that are inherently fluorescent or able to act as quenchers in the assay. TR-FRET Binding Assay

Row | Compound | GI50 [1] [nM] | Ki (WDR5) [nM]
1 | Cc1nccn1Cc1cc2c(c(-c3cn(C)nc3C(F)(F)F)c1)CCN(c1cccc3ccccc13)C2=O [Example 1, 7-((2-Methyl-1H-imidazol-1-yl)methyl)-5-(1-methyl-3-(trifluoromethyl)-1H-pyrazol-4-yl)-2-(naphthalen-1-yl)-3,4-dihydroisoquinolin-1(2H)-one] | 1540 | 0.46
2 | Cc1nccn1Cc1cc2c(c(-c3cn(C)nc3C(F)(F)F)c1)CCN(c1ccnc3cc(Cl)ccc13)C2=O [Example 2, 2-(7-Chloroquinolin-4-yl)-7-((2-methyl-1H-imidazol-1-yl)methyl)-5-(1-methyl-3-(trifluoromethyl)-1H-pyrazol-4-yl)-3,4-dihydroisoquinolin-1(2H)-one] | 189 | 0.05
3 | COc1cnc2cccc(N3CCc4c(cc(Cn5ccnc5C)cc4-c4cn(C)nc4C(F)(F)F)C3=O)c2c1 [Example 3, 2-(3-Methoxyquinolin-5-yl)-7-((2-methyl-1H-imidazol-1-yl)methyl)-5-(1-methyl-3-(trifluoromethyl)-1H-pyrazol-4-yl)-3,4-dihydroisoquinolin-1(2H)-one] | 20 | < 0.02
4 | COc1ccc2nccc(N3CCc4c(cc(Cn5ccnc5C)cc4-c4cn(C)nc4C(F)(F)F)C3=O)c2c1 [Example 4, 2-(6-Methoxyquinolin-4-yl)-7-((2-methyl-1H-imidazol-1-yl)methyl)-5-(1-methyl-3-(trifluoromethyl)-1H-pyrazol-4-yl)-3,4-dihydroisoquinolin-1(2H)-one] | < 20 | < 0.02
5 | COc1ccc2ccnc(N3CCc4c(cc(Cn5ccnc5C)cc4-c4cn(C)nc4C(F)(F)F)C3=O)c2c1 [Example 5, 7-Methoxy-7′-((2-methyl-1H-imidazol-1-yl)methyl)-5-(1-methyl-3-(trifluoromethyl)-1H-pyrazol-4-yl)-3′,4-dihydro-1′H-[1,2′-biisoquinolin]-1′-one] | 83 | 0.034
6 | COc1cc2c(N3CCc4c(cc(Cn5ccnc5C)cc4-c4cn(C)nc4C(F)(F)F)C3=O)ccnc2cc1C [Example 6, 2-(6-Methoxy-7-methylquinolin-4-yl)-7-((2-methyl-1H-imidazol-1-yl)methyl)-5-(1-methyl-3-(trifluoromethyl)-1H-pyrazol-4-yl)-3,4-dihydroisoquinolin-1(2H)-one] | 32 | 0.024
7 | COc1cc(C)c2nccc(N3CCc4c(cc(Cn5ccnc5C)cc4-c4cn(C)nc4C(F)(F)F)C3=O)c2c1 [Example 7, 2-(6-Methoxy-8-methylquinolin-4-yl)-7-((2-methyl-1H-imidazol-1-yl)methyl)-5-(1-methyl-3-(trifluoromethyl)-1H-pyrazol-4-yl)-3,4-dihydroisoquinolin-1(2H)-one] | 29 | 0.026
8 | COc1ccc2nc(C)cc(N3CCc4c(cc(Cn5ccnc5C)cc4-c4cn(C)nc4C(F)(F)F)C3=O)c2c1 [Example 8, 2-(6-Methoxy-2-methylquinolin-4-yl)-7-((2-methyl-1H-imidazol-1-yl)methyl)-5-(1-methyl-3-(trifluoromethyl)-1H-pyrazol-4-yl)-3,4-dihydroisoquinolin-1(2H)-one] | < 20 | 0.026
9 | COc1ccc2ncc(Cl)c(N3CCc4c(cc(Cn5ccnc5C)cc4-c4cn(C)nc4C(F)(F)F)C3=O)c2c1 [Example 9, 2-(3-Chloro-6-methoxyquinolin-4-yl)-7-((2-methyl-1H-imidazol-1-yl)methyl)-5-(1-methyl-3-(trifluoromethyl)-1H-pyrazol-4-yl)-3,4-dihydroisoquinolin-1(2H)-one] | 43 | 0.048
10 | Cc1ccc2cncc(N3CCc4c(cc(Cn5ccnc5C)cc4-c4cn(C)nc4C(F)(F)F)C3=O)c2c1 [Example 10, 6′-Methyl-7-((2-methyl-1H-imidazol-1-yl)methyl)-5-(1-methyl-3-(trifluoromethyl)-1H-pyrazol-4-yl)-3,4-dihydro-1H-[2,4′-biisoquinolin]-1-one] | < 20 | 0.029
11 | COc1ccc(N2CCc3c(cc(Cn4ccnc4C)cc3-c3cn(C)nc3C(F)(F)F)C2=O)c2cc(C)cnc12 [Example 11, 2-(8-Methoxy-3-methylquinolin-5-yl)-7-((2-methyl-1H-imidazol-1-yl)methyl)-5-(1-methyl-3-(trifluoromethyl)-1H-pyrazol-4-yl)-3,4-dihydroisoquinolin-1(2H)-one] | 3890 | 0.035
12 | Cc1ccc2cncc(N3CCc4c(cc(Cn5ccnc5)cc4-c4cn(C)nc4C(F)(F)F)C3=O)c2c1 [Example 16, 7-((1H-Imidazol-1-yl)methyl)-6′-methyl-5-(1-methyl-3-(trifluoromethyl)-1H-pyrazol-4-yl)-3,4-dihydro-1-[2,4′-biisoquinolin]-1-one] | 42 | 0.028
13 | COc1cc(OC)c2nccc(N3CCc4c(cc(Cn5ccnc5)cc4-c4cn(C)nc4C(F)(F)F)C3=O)c2c1 [Example 17, 7-((1H-Imidazol-1-yl)methyl)-2-(6,8-dimethoxyquinolin-4-yl)-5-(1-methyl-3-(trifluoromethyl)-1H-pyrazol-4-yl)-3,4-dihydroisoquinolin-1(2H)-one] | < 20 | 0.025

Now from value to compound:

Row | GI50 [1] [nM] | Ki (WDR5) [nM] | Compound
14 | 34 | < 0.02 | COc1cnc2cccc(N3CCc4c(cc(Cn5ccnc5)cc4-c4cn(C)nc4C(F)(F)F)C3=O)c2c1 [Example 12, 7-((1H-Imidazol-1-yl)methyl)-2-(3-methoxyquinolin-5-yl)-5-(1-methyl-3-(trifluoromethyl)-1H-pyrazol-4-yl)-3,4-dihydroisoquinolin-1(2H)-one]
15 | 45 | < 0.02 | COc1ccc2nccc(N3CCc4c(cc(Cn5ccnc5)cc4-c4cn(C)nc4C(F)(F)F)C3=O)c2c1 [Example 13, 7-((1H-Imidazol-1-yl)methyl)-2-(6-methoxyquinolin-4-yl)-5-(1-methyl-3-(trifluoromethyl)-1H-pyrazol-4-yl)-3,4-dihydroisoquinolin-1(2H)-one]
16 | 64 | 0.026 | Cc1ccc2nccc(N3CCc4c(cc(Cn5ccnc5)cc4-c4cn(C)nc4C(F)(F)F)C3=O)c2c1 [Example 15, 7-((1H-Imidazol-1-yl)methyl)-5-(1-methyl-3-(trifluoromethyl)-1H-pyrazol-4-yl)-2-(6-methylquinolin-4-yl)-3,4-dihydroisoquinolin-1(2H)-one]
17 | < 20 | < 0.02 | COc1cc(OC)c2nc(C)cc(N3CCc4c(cc(Cn5ccnc5)cc4-c4cn(C)nc4C(F)(F)F)C3=O)c2c1 [Example 18, 7-((1H-Imidazol-1-yl)methyl)-2-(6,8-dimethoxy-2-methylquinolin-4-yl)-5-(1-methyl-3-(trifluoromethyl)-1H-pyrazol-4-yl)-3,4-dihydroisoquinolin-1(2H)-one]
18 | 26 | 0.02 | COc1cc(C)cc2c(N3CCc4c(cc(Cn5ccnc5)cc4-c4cn(C)nc4C(F)(F)F)C3=O)ccnc12 [Example 19, 7-((1H-Imidazol-1-yl)methyl)-2-(8-methoxy-6-methylquinolin-4-yl)-5-(1-methyl-3-(trifluoromethyl)-1H-pyrazol-4-yl)-3,4-dihydroisoquinolin-1(2H)-one]
19 | < 20 | < 0.02 | CCc1cc(OC)c2nccc(N3CCc4c(cc(Cn5ccnc5)cc4-c4cn(C)nc4C(F)(F)F)C3=O)c2c1 [Example 20, 7-((1H-Imidazol-1-yl)methyl)-2-(6-ethyl-8-methoxyquinolin-4-yl)-5-(1-methyl-3-(trifluoromethyl)-1H-pyrazol-4-yl)-3,4-dihydroisoquinolin-1(2H)-one]
20 | – | < 0.02 | CCc1cc(NC(C)=O)c2nccc(N3CCc4c(cc(Cn5ccnc5)cc4-c4cn(C)nc4C(F)(F)F)C3=O)c2c1 [Example 231, N-(4-(7-((1H-Imidazol-1-yl)methyl)-5-(1-methyl-3-(trifluoromethyl)-1H-pyrazol-4-yl)-1-oxo-3,4-dihydroisoquinolin-2(1H)-yl)-6-ethylquinolin-8-yl)acetamide]
